Assay results reported in patent US9487489B2, “Halogen-substituted pyrazole derivatives as pest-control agents” (BAYER CROPSCIENCE AKTIENGESELLSCHAFT, priority 2013, dated 2016).
“And” between values parts separate entries of the source, which are not always exact repeats. Equal values may be shown once.

Key:
[1] = tested on: adult castor bean ticks (Ixodes ricinus); test: Ixodes ricinus in vitro contact test with adult castor bean ticks (T3); conditions: after 48 h
Description: T3. Ixodes ricinus-in vitro Contact Tests with Adult Castor Bean Ticks
For the coating of the test tubes, initially 9 mg of active compound are dissolved in 1 ml of acetone p.a. and then diluted with acetone p.a. to the desired concentration. By turning and rocking on an orbital shaker (2 h of rocking rotation at 30 rpm), 250 μl of the solution are distributed homogeneously on the internal walls and the floor of a 25 ml test tube. At 900 ppm active compound solution and 44.7 cm^2 internal surface, an area dose of 5 μg/cm^2 is achieved for homogeneous distribution.
After evaporation of the solvent, the tubes are populated with 5-10 adult castor bean ticks (Ixodes ricinus), sealed with a perforated plastic lid and incubated in a horizontal position in the dark at 22° C. and 90% humidity in a climate-controlled cabinet. After 48 h, the efficacy is determined. To this end, the ticks are knocked to the floor of the tube and incubated on a hotplate at 45-50° C. for at most 5 min. Ticks which remain motionless on the floor or move in an uncoordinated manner such that they are not able to deliberately avoid the heat by climbing upwards are considered to be dead or moribund.
An efficacy of 100% means that all ticks were dead or moribund. 0% efficacy means that none of the ticks had been damaged.

[2] = tested on: adult cat fleas (Ctenocephalides felis); test: Ctenocephalides felis in vitro contact test with adult cat fleas (T1); conditions: after 48 h
Procedure, shortened: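 Test compound was dissolved in acetone p.a. (9 mg per 1 ml) and diluted as needed. 250 μl was spread evenly over the inner walls and floor of a 25 ml test tube by rotating on an orbital shaker for 2 h at 30 rpm. Once the solvent evaporated, 5-10 adult Ctenocephalides felis were added. Tubes were capped with a perforated plastic lid and kept horizontal at room temperature and ambient humidity.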

[3] = tested on: bont tick nymphs (Amblyomma hebraeum); conditions: after 48 h
[4] = tested on: adult dog ticks (Rhipicephalus sanguineus); test: Rhipicephalus sanguineus in vitro contact test with adult brown dog ticks (T2); conditions: after 48 h
Procedure, shortened: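 Acetone solutions coated onto test tube walls and floor, giving 5 μg/cm^2 at 900 ppm. Five to ten adult ticks held per tube in the dark at room temperature for 48 h, then heated at 45-50° C for up to 5 min; efficacy is the percentage of dead or moribund ticks unable to climb away.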

[5] = tested on: adult cat fleas (Ctenocephalides felis); test: Ctenocephalides felis oral test (CTECFE); type: in vivo; conditions: application rate 100 ppm in citrated cattle blood; after 2 days
Procedure, shortened: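 About 20 unfed adult cat fleas fed through parafilm membrane on citrated cattle blood containing compound (DMSO stock diluted in blood to test concentration). Kill % scored after 2 days (100% = all fleas dead).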

[6] = tested on: caterpillars of the armyworm (Spodoptera frugiperda); test: Spodoptera frugiperda spray test (SPODFR); type: in vivo; conditions: maize leaf discs, after 7 days
Procedure, shortened: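 Maize leaf discs sprayed with compound in acetone/DMF with alkylaryl polyglycol ether emulsifier (1000 ppm) in water, dried, then infested with armyworm caterpillars. Mortality (%) scored after 7 days; 100% = all caterpillars killed, 0% = none killed.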

[7] = tested on: larvae of the red stomach worm (Haemonchus contortus); test: Haemonchus contortus test (HAEMCO); type: in vivo; conditions: application rate 20 ppm; after 5 days
Description: T8. Haemonchus contortus-test (HAEMCO)
Solvent: dimethyl sulphoxide
To produce a suitable preparation of active compound, 10 mg of active compound are mixed with 0.5 ml of dimethyl sulphoxide, and the concentrate is diluted with “Ringer solution” to the desired concentration.
Vessels containing the active compound preparation of the desired concentration are populated with about 40 larvae of the red stomach worm (Haemonchus contortus).
After 5 days, the kill in % is determined 100% means that all of the larvae have been killed; 0% means that none of the larvae have been killed.

SMILES	efficacy (dead or moribund ticks) ([1]; application rate 1 μg/cm^2)	efficacy (dead or moribund ticks) ([1]; application rate 5 μg/cm^2)	efficacy (dead or moribund fleas) ([2]; application rate 1 μg/cm^2)	efficacy (dead or moribund fleas) ([2]; application rate 5 μg/cm^2)	efficacy (dead or moribund ticks) [3]	efficacy (dead or moribund ticks) ([4]; application rate 1 μg/cm^2)	efficacy (dead or moribund ticks) ([4]; application rate 5 μg/cm^2)	efficacy (kill in %) [5]	efficacy in % ([6]; application rate 100 g/ha)	efficacy (kill in %) [7]	efficacy in % ([6]; application rate 500 g/ha)
Cn1nc(C(F)(F)C(F)(F)F)c(C(F)(F)F)c1-n1ccc(-c2ccc(Cl)c(C(=O)NC3(C#N)CC3)c2)c1 [Ia-1]	100%	100%	100%	100%	100%	100%	100%	100%	100%	–	–
Cn1nc(C(F)(F)C(F)(F)F)c(C(F)(F)F)c1-n1ccc(-c2ccc(Cl)c(C(=O)NC3CC3)c2)c1 [Ia-2]	100%	100%	100%	100%	100%	100%	100%	100%	100%	–	–
Cn1nc(C(F)(F)C(F)(F)F)c(C(F)(F)F)c1-n1cnc(-c2ccc(Cl)c(C(=O)NC3CC3)c2)c1 [Ib-3]	80%	80%	100%	100%	100% and 80%	100%	80%	100%	100%	–	–
Cn1nc(C(F)(F)C(F)(F)F)c(C(F)(F)F)c1-n1cc(-c2ccc(Cl)c(C(=O)NC3(C#N)CC3)c2)cn1 [Ic-2]	100%	100%	100%	100%	100%	100%	100%	100%	100%	–	–
Cn1nc(C(F)(F)C(F)(F)F)c(C(F)(F)F)c1-n1cc(-c2ccc(Cl)c(C(=O)NC3(C(N)=S)CC3)c2)cn1 [Ic-11]	80%	100%	100%	100%	100%	100%	100%	100%	100%	–	–
CCn1nc(C(F)(F)C(F)(F)F)c(C(F)(F)F)c1-n1cc(-c2ccc(Cl)c(C(=O)NC3CC3)c2)cn1 [Ic-16]	100%	100%	100%	100%	100%	100%	100%	100%	100%	80%	–
Cn1nc(C(F)(F)C(F)(F)F)c(C(F)(F)F)c1-n1cc(-c2ccc(Cl)c(C(=O)NCC(F)(F)F)c2)cn1 [Ic-23]	100%	100%	100%	100%	100%	100%	100%	100%	100%	–	–
Cn1nc(C(F)(F)C(F)(F)F)c(C(F)(F)F)c1-n1cc(-c2cc(F)c(Cl)c(C(=O)NC3CC3)c2)cn1 [Ic-24]	–	–	100%	100%	–	100%	100%	100%	–	–	100%
Cn1nc(C(F)(F)C(F)(F)F)c(C(F)(F)F)c1-n1cc(-c2cc(F)c(Cl)c(C(=O)NC3(C#N)CC3)c2)cn1 [Ic-27]	–	–	100%	100%	–	100%	100%	100%	–	–	100%
Cn1nc(C(F)(F)C(F)(F)F)c(C(F)(F)F)c1-n1cc(-c2ccc(Br)c(C(=O)NC3(C#N)CC3)c2)cn1 [Ic-34]	–	–	100%	100%	–	80%	100%	100%	100%	–	–
Cn1nc(C(F)(F)C(F)(F)F)c(C(F)(F)F)c1-n1cc(-c2ccc(F)c(C(=O)NC3(C#N)CC3)c2)cn1 [Ic-36]	–	–	100%	100%	–	100%	100%	100%	100%	–	–
Cn1nc(C(F)(F)C(F)(F)F)c(C(F)(F)F)c1-n1cc(-c2ccc(F)c(C(=O)NC3CC3)c2)cn1 [Ic-37]	100%	100%	100%	100%	100%	100%	100%	100%	100%	–	–
Cn1nc(C(F)(F)C(F)(F)F)c(C(F)(F)F)c1-n1cc(-c2ccc([N+](=O)[O-])c(C(=O)NC3CC3)c2)cn1 [Ic-66]	–	–	100%	100%	–	100%	100%	100%	100%	–	–
Cn1nc(C(F)(F)C(F)(F)F)c(C(F)(F)F)c1-n1cc(-c2ccc(Cl)c(C(=O)NCC(F)F)c2)cn1 [Ic-78]	–	–	100%	100%	–	100%	100%	100%	100%	–	–
Cn1nc(C(F)(F)C(F)(F)F)c(C(F)(F)F)c1-n1cc(-c2ccc(Cl)c(C(=O)NC3CC3F)c2)cn1 (stereo not shown) [Ic-81]	100%	100%	100%	100%	100%	100%	100%	100%	100%	–	–
Cc1ncc(-c2cnn(-c3c(C(F)(F)F)c(C(F)(F)C(F)(F)F)nn3C)c2)cc1C(=O)NC1CC1 [Ic-84]	100%	100%	100%	100%	100%	100%	100%	100%	–	–	100%
Cn1nc(C(F)(F)C(F)(F)F)c(C(F)(F)F)c1-n1cc(-c2cc(Cl)c(Cl)c(C(=O)NC3CC3)c2)cn1 [Ic-94]	100%	100%	100%	100%	100%	100%	100%	100%	–	–	100%
CN(C(=O)c1cc(-c2cnn(-c3c(C(F)(F)F)c(C(F)(F)C(F)(F)F)nn3C)c2)ccc1Cl)C1(C#N)CC1 [Ic-96]	–	–	100%	100%	–	100%	100%	100%	100%	–	–
